Where two headings read alike, the source gives them in different places. Residues, ends and D or L forms follow the SMILES beside them.
Assays:
[1] = system: HFF, ARPE-19 and macrophages; assay: Impedance measurement (xCELLigence) toxicity study; assay type: cell-based, human; conditions: ARPE-19, macrophages, 72 h impedance
Description: The “xCELLigence” system (ACEA Biosciences Inc.) was used for a more detailed toxicity study. The principle is based on a measurement of the electrical resistance caused by adhesive cells on the bottom of a 96-well plate equipped with microelectrodes. Cell proliferation causes an increase in resistance due to the partial isolation of the electrodes, while events leading to altered cell morphology or cell detachment lead to reduced resistance (Diemert et al. “Impedance measurement for real time detection of neuronal cell death”, J Neurosci Methods, 203(1):69-77, 2012)). The experiments were performed with HFF, ARPE-19 and macrophages, the appropriate cell numbers were determined in a preliminary experiment without treatment with peptides.
On the first day 10 000 HFF or ARPE-19 or 20 000 macrophages per well were sown. […] Then a blank value was measured and the cells were added in corresponding numbers in 150 μl medium each, the final volume was 200 μl per well. The plate was placed in the “xCELLigence” and the impedance was measured at 37° C. and 5% CO2 over 24 h every 30 min. […] Afterwards, the resistance at the bottom of the 96-well plate was measured every 30 min for a further 72 h. The resistance of the tritone was measured with a positive control of 10% tritone. From the measured impedance values, the RTCA software calculated the so-called cell index according to the following formula: […]

zebrafish embryos = assay type: in vivo; conditions: exposure from 6-7 hpf
Protocol: To test HD5 (1-9) (SEQ ID No. 1) for toxicity and to assess its effect on embryonic development in zebrafish, embryos obtained from natural crosses of wildtype TE fish were used. After mating, embryos were incubated at 28° C. until 6 h postfertilization (hpf). Triplicates of five embryos each were then placed in wells of a 96-well plate containing 200 μl of different peptide concentrations. HD5 (1-9) (SEQ ID No. 1) dissolved in PBS was diluted in normal embryo medium (250 mg/L Instant Ocean salt, 1 mg/L methylene blue in reverse osmosis water adjusted to pH 7 with NaHCO3) (Muller et al., “Differential diffusivity of Nodal and Lefty underlies a reaction-diffusion patterning system”; Science 336 (6082):721-724, 2012). The concentrations tested were 25 μM, 75 μM, 125 μM and 250 μM, and the concentration of PBS solvent was adjusted for each control group. At peptide concentrations of 75 μM and above we observed granulae in some wells, which could represent peptide accumulations. As a control, embryos were additionally incubated in 25 μg/ml cycloheximide (C4859, Sigma-Aldrich). After 13 hpf, 24 hpf and 48 hpf a microscopic phenotype analysis was performed. For each time point embryos were automatically imaged using an ACQUIFER Imaging Machine. For the phenotype analysis at 48 hpf, the larvae were manually dechorionated and anaesthetized with 2% tricaine methane-sulfonate (A5040-25G, Sigma-Aldrich). Images were acquired on an Axio Zoom.V16 microscope (ZEISS).
As a first test of HD5 (1-9) (SEQ ID No. 1) toxicity in vivo, as well as to elucidate potential effects of the peptide on embryonic development, experiments with zebrafish embryos were performed (He et al., 2014). Embryos were treated with HD5 (1-9) (SEQ ID No. 1) at concentrations of 25 μM, 75 μM, 125 μM and 250 μM starting at 6-7 h post fertilization (hpf), which is the time point recommended by pharmaceutical company-utilized assays to assess toxic effects of compounds on early embryonic development (Ball et al., 2014). Phenotypes were analyzed at 13.24 and 48 hpf (data not shown). […] Impaired development at 250 μM peptide exposure was also evident over the whole observation period, leading to the death of 11 embryos and 4 embryos having severe developmental delays by 48 hpf.

[2] = system: TB40-BACKL7-UL32EGFP-UL 100mCherry; assay: Attachment of fluorescently tagged viral particles to HFF; assay type: cell-based, Human Cytomegalovirus; conditions: HFF preincubated with peptide 1 h, 6 h after infection, data not shown
Protocol: In additional experiments, […] (encoding for pp150) was GFP (green fluorescence protein)-tagged, UL100 (encoding for gM) was mCherry-tagged. This allowed discrimination between enveloped particles, which were EGFP and mCherry-positive and appeared yellow, and non-enveloped particles, which were only EGFP-positive and appeared green.
HFF were preincubated with peptide in the corresponding concentration 1 h at 37° C. and then infected TB40-BACKL7-UL32EGFP-UL 100mCherry. After 6 h of incubation, cells were fixed and stained with DAPI.

C[C@H](N)C(=O)N[C@H](C(=O)N[C@@H](CS)C(=O)N[C@@H](Cc1ccc(O)cc1)C(=O)N[C@@H](CS)C(=O)N[C@@H](CCCNC(=N)N)C(=O)N[C@H](C(=O)NCC(=O)N[C@@H](CCCNC(=N)N)C(=O)O)[C@@H](C)O)[C@@H](C)O [HD5 (1-9), ATCYCRTGR] (H-ATCYCRTGR-OH; N-terminus and C-terminus assumed)
concentration up to which no cytotoxicity is shown [1]: up to 150 μM
embryonic development (zebrafish embryos; 25 μM or 75 μM): developed normally
embryonic development (zebrafish embryos; 125 μM): approximately half of the embryos having no alterations
death of embryos by 48 hpf (zebrafish embryos; 250 μM): 11 embryos
embryo death by 13 hpf (zebrafish embryos; 250 μM): half of the embryos had died
embryos having severe developmental delays by 48 hpf (zebrafish embryos; 250 μM): 4 embryos
attachment of viral particles [2]: blocks the attachment of viral particles

Reference: patent US20220213156A1, “Peptides for use in therapy or prophylaxis of Herpesviridae-infections” (priority 2019, published 2022)
